In brackets after ≈: the same amount, converted by molar mass.
What was measured:
Assay in all cases: microbe, parasite or virus in culture
Type in all cases: cell-based
[1] = test system: Brucella abortus (BAB; Gram-negative); conditions: read-out: MIC BAB
[2] = test system: Burkholderia pseudomallei (BP; Gram-negative); conditions: read-out: MIC BP
[3] = test system: Yersinia pestis (YP; Gram-negative); conditions: read-out: MIC YP
[4] = test system: Bacillus anthracis (BA; Gram-positive); conditions: read-out: MIC BA
[5] = test system: Burkholderia mallei (BM; Gram-negative); conditions: read-out: MIC BM
[6] = test system: Francisella tularensis (FT; Gram-negative); conditions: read-out: MIC FT

SMILES	MIC [1] [µg/mL]	MIC [2] [µg/mL]	MIC [3] [µg/mL]	MIC [4] [µg/mL]	MIC [5] [µg/mL]	MIC [6] [µg/mL]
Cc1c2[nH]c3ccc(F)cc3c2cc2c1[nH]c1ccc(F)cc12	1 (≈ 3.26 µM)	> 16	> 16	0.5 (≈ 1.63 µM)	> 16	0.5 (≈ 1.63 µM)
CCN(CC)CCOc1c2[nH]c3ccc(F)cc3c2cc2c1[nH]c1ccc(F)cc12	1 (≈ 2.45 µM)		> 16	1 (≈ 2.45 µM)		0.5 (≈ 1.23 µM)
Fc1ccc2[nH]c3c(OCCN4CCCC4)c4[nH]c5ccc(F)cc5c4cc3c2c1	1 (≈ 2.47 µM)	> 16	8 (≈ 19.7 µM)	1 (≈ 2.47 µM)	> 16	0.5 (≈ 1.23 µM)
CC(CN(C)C)Oc1c2[nH]c3ccc(F)cc3c2cc2c1[nH]c1ccc(F)cc12 (stereo not shown)	0.5 (≈ 1.27 µM)		16 (≈ 40.7 µM)	1 (≈ 2.54 µM)		0.5 (≈ 1.27 µM)
FC(F)(F)c1c2[nH]c3ccccc3c2cc2c1[nH]c1ccccc12	2 (≈ 6.17 µM)	> 16	> 16	1 (≈ 3.08 µM)	> 16	0.5 (≈ 1.54 µM)
COc1c2[nH]c3ccc(F)cc3c2c(N2CCCC2)c2c1[nH]c1ccc(F)cc12	2 (≈ 5.11 µM)	> 16	> 16	1 (≈ 2.55 µM)	> 16	0.5 (≈ 1.28 µM)
NCCCOc1c2[nH]c3ccc(F)cc3c2cc2c1[nH]c1ccc(F)cc12	0.5 (≈ 1.37 µM)	8 (≈ 21.9 µM)	2 (≈ 5.47 µM)	0.5 (≈ 1.37 µM)	8 (≈ 21.9 µM)	0.5 (≈ 1.37 µM)
CN(C)CCOc1c2[nH]c3ccc(Cl)cc3c2cc2c1[nH]c1ccc(Cl)cc12	0.5 (≈ 1.21 µM)	16 (≈ 38.8 µM)	2 (≈ 4.85 µM)	0.5 to 1 (≈ 1.21 to 2.43 µM)	8 (≈ 19.4 µM)	0.25 (≈ 0.606 µM)
CN(C)CCOc1c2[nH]c3ccc(F)cc3c2c(Br)c2c1[nH]c1ccc(F)cc12	0.25 (≈ 0.545 µM)	> 8	> 8	0.25 (≈ 0.545 µM)	> 8	0.25 (≈ 0.545 µM)
NCCCOc1c2[nH]c3ccc(Cl)cc3c2cc2c1[nH]c1ccc(Cl)cc12	0.5 (≈ 1.26 µM)	8 (≈ 20.1 µM)	2 (≈ 5.02 µM)	0.5 (≈ 1.26 µM)	4 (≈ 10 µM)	0.25 to 0.5 (≈ 0.628 to 1.26 µM)
NC1CCN(CCCOc2c3[nH]c4ccc(F)cc4c3cc3c2[nH]c2ccc(F)cc23)CC1	0.5 (≈ 1.11 µM)		2 (≈ 4.46 µM)	0.5 (≈ 1.11 µM)		0.125 to 0.5 (≈ 0.279 to 1.11 µM)
N[C@H]1CCN(CCCOc2c3[nH]c4ccc(F)cc4c3cc3c2[nH]c2ccc(F)cc23)C1	1 (≈ 2.3 µM)		4 (≈ 9.21 µM)	1 (≈ 2.3 µM)		0.5 (≈ 1.15 µM)
NCCOc1c2[nH]c3ccc(Cl)cc3c2cc2c1[nH]c1ccc(Cl)cc12	0.5 (≈ 1.3 µM)	8 (≈ 20.8 µM)	2 (≈ 5.2 µM)	2 (≈ 5.2 µM)	4 (≈ 10.4 µM)	0.5 (≈ 1.3 µM)
CN(C)CCCc1c2[nH]c3ccc(F)cc3c2cc2c1[nH]c1ccc(F)cc12	1 (≈ 2.65 µM)	> 16	8 (≈ 21.2 µM)	1 (≈ 2.65 µM)	16 (≈ 42.4 µM)	1 (≈ 2.65 µM)
NC1CCN(CCCOc2c3[nH]c4ccc(Cl)cc4c3cc3c2[nH]c2ccc(Cl)cc23)CC1	1 (≈ 2.08 µM)	> 16	4 (≈ 8.31 µM)	2 (≈ 4.15 µM)	16 (≈ 33.2 µM)	1 (≈ 2.08 µM)
NC1CCN(CCOc2c3[nH]c4ccc(Cl)cc4c3cc3c2[nH]c2ccc(Cl)cc23)CC1	1 (≈ 2.14 µM)		16 (≈ 34.2 µM)	2 (≈ 4.28 µM)		0.5 (≈ 1.07 µM)
OC1CCN(CCCOc2c3[nH]c4ccc(F)cc4c3cc3c2[nH]c2ccc(F)cc23)C1 (stereo not shown)	0.251 (≈ 0.576 µM)	8 (≈ 18.4 µM)	8 (≈ 18.4 µM)	0.5 (≈ 1.15 µM)	8 (≈ 18.4 µM)	0.5 (≈ 1.15 µM)
Clc1ccc2[nH]c3c(OCCCNC4CCNCC4)c4[nH]c5ccc(Cl)cc5c4cc3c2c1	1 (≈ 2.08 µM)	8 (≈ 16.6 µM)	2 (≈ 4.15 µM)	1 (≈ 2.08 µM)	4 (≈ 8.31 µM)	1 (≈ 2.08 µM)

SMILES	MIC [1] [µg/mL]	MIC [2] [µg/mL]	MIC [3] [µg/mL]	MIC [4] [µg/mL]	MIC [5] [µg/mL]	MIC [6] [µg/mL]
Clc1ccc2[nH]c3c(OCCCn4cncn4)c4[nH]c5ccc(Cl)cc5c4cc3c2c1				0.5 (≈ 1.11 µM)		0.25 (≈ 0.555 µM)
Clc1ccc2[nH]c3c(OCCCn4cnnc4)c4[nH]c5ccc(Cl)cc5c4cc3c2c1				0.25 (≈ 0.555 µM)		0.5 (≈ 1.11 µM)
CN(C)C1CCN(CCOc2c3[nH]c4ccc(F)cc4c3cc3c2[nH]c2ccc(F)cc23)C1 (stereo not shown)	0.5 (≈ 1.11 µM)		> 8	1 (≈ 2.23 µM)		0.5 (≈ 1.11 µM)
OC1CN(CCCOc2c3[nH]c4ccc(Cl)cc4c3cc3c2[nH]c2ccc(Cl)cc23)C1	1 (≈ 2.2 µM)		4 (≈ 8.8 µM)	0.5 (≈ 1.1 µM)		0.5 (≈ 1.1 µM)
CC(C)/N=C(/NCCCOc1c2[nH]c3ccc(F)cc3c2cc2c1[nH]c1ccc(F)cc12)NC(C)C	1 (≈ 2.03 µM)		4 (≈ 8.14 µM)	0.5 (≈ 1.02 µM)		1 (≈ 2.03 µM)
CC/N=C(/NCCCOc1c2[nH]c3ccc(Cl)cc3c2cc2c1[nH]c1ccc(Cl)cc12)NCCCN(C)C	1 (≈ 1.81 µM)	4 (≈ 7.23 µM)	1 (≈ 1.81 µM)	≤ 0.25	4 (≈ 7.23 µM)	1 (≈ 1.81 µM)
Clc1ccc2[nH]c3c(OCCC4CCNCC4)c4[nH]c5ccc(Cl)cc5c4cc3c2c1	≤ 0.25	> 8	1 (≈ 2.21 µM)	≤ 0.25	4 (≈ 8.84 µM)	0.5 (≈ 1.11 µM)
Fc1ccc2[nH]c3c(OC4CCNC4)c4[nH]c5ccc(F)cc5c4cc3c2c1 (stereo not shown)	≤ 0.25	4 (≈ 10.6 µM)	1 (≈ 2.65 µM)	≤ 0.25	2 (≈ 5.3 µM)	0.5 (≈ 1.32 µM)
Clc1ccc2[nH]c3c(OCCCNCc4c[nH]c5ccccc45)c4[nH]c5ccc(Cl)cc5c4cc3c2c1	0.5 (≈ 0.948 µM)	> 8	2 (≈ 3.79 µM)	1 (≈ 1.9 µM)	> 8	1 (≈ 1.9 µM)
Clc1ccc2[nH]c3c(OCCCNCc4ccc[nH]4)c4[nH]c5ccc(Cl)cc5c4cc3c2c1	0.5 (≈ 1.05 µM)	> 8	2 (≈ 4.19 µM)	0.5 (≈ 1.05 µM)	> 8	0.5 (≈ 1.05 µM)
Clc1ccc2[nH]c3c(OCCCNCc4ncc[nH]4)c4[nH]c5ccc(Cl)cc5c4cc3c2c1	0.5 (≈ 1.05 µM)	> 8	2 (≈ 4.18 µM)	1 (≈ 2.09 µM)	> 8	1 (≈ 2.09 µM)
Fc1ccc2[nH]c3c(OC[C@H]4CCCN4)c4[nH]c5ccc(F)cc5c4cc3c2c1	0.5 (≈ 1.28 µM)	8 (≈ 20.4 µM)	2 (≈ 5.11 µM)	0.5 (≈ 1.28 µM)	8 (≈ 20.4 µM)	0.5 (≈ 1.28 µM)
Fc1ccc2[nH]c3c(OC4CCCNC4)c4[nH]c5ccc(F)cc5c4cc3c2c1 (stereo not shown)	0.5 (≈ 1.28 µM)	> 8	4 (≈ 10.2 µM)	0.5 (≈ 1.28 µM)	8 (≈ 20.4 µM)	1 (≈ 2.55 µM)
N[C@H]1CC[C@@H](Oc2c3[nH]c4ccc(F)cc4c3cc3c2[nH]c2ccc(F)cc23)CC1	0.5 (≈ 1.23 µM)	> 8	4 (≈ 9.87 µM)	0.5 (≈ 1.23 µM)	> 8	1 (≈ 2.47 µM)
Clc1ccc2[nH]c3c(OCCCNCc4cnc[nH]4)c4[nH]c5ccc(Cl)cc5c4cc3c2c1	0.5 (≈ 1.05 µM)		4 (≈ 8.36 µM)	0.5 (≈ 1.05 µM)		1 (≈ 2.09 µM)
NCCOc1c2[nH]c3ccc(F)cc3c2cc2c1[nH]c1ccc(F)cc12	1 (≈ 2.85 µM)	16 (≈ 45.5 µM)	4 (≈ 11.4 µM)	4 (≈ 11.4 µM)	8 (≈ 22.8 µM)	2 (≈ 5.69 µM)
Clc1ccc2[nH]c3c(O[C@@H]4CCNC4)c4[nH]c5ccc(Cl)cc5c4cc3c2c1	≤ 0.25	> 8	1 (≈ 2.44 µM)	≤ 0.25	2 (≈ 4.87 µM)	≤ 0.25

— US8399502B2, “Analogs of indole-3-carbinol and their use as agents against infection” (priority 2008, dated 2013)
